The results in this text go back to ChEMBL document CHEMBL4043153, “Lead selection of antiparasitic compounds from a focused library of benzenesulfonyl derivatives of heterocycles” (Bioorg Med Chem Lett, 2017).

Series [1] concerns Leishmania donovani. The experiment in a line: Antiparasitic activity against Leishmania donovani MHOM-ET-67/L82 axenic amastigotes assessed as growth inhibition at 0.8 ug/ml after 72 hrs by resazurin dye-based fluorometric analysis relative to control. The class given is functional. Particulars: MHOM-ET-67/L82, 72 h, read-out: GI.
Series [2] concerns Leishmania donovani. Briefly: Antiparasitic activity against Leishmania donovani MHOM-ET-67/L82 axenic amastigotes assessed as growth inhibition at 4.8 ug/ml after 72 hrs by resazurin dye-based fluorometric analysis relative to control. It counts as functional. Particulars: MHOM-ET-67/L82, 72 h, read-out: GI. (The colour change of resazurin is a common sign of viable cells or microbes.)

Series [3] has as its system Trypanosoma cruzi. Briefly: Antiparasitic activity against Trypanosoma cruzi Tulahuen C4 intracellular amastigotes infected in rat L6 cells assessed as growth inhibition at 0.8 ug/ml after 96 hrs by CPRG/Nonidet reagent based photometric analysis relative to control. It counts as functional. The note with it: Tulahuen C4, L6, 96 h, read-out: GI.
The test system of series [4] is Trypanosoma cruzi. Briefly: Antiparasitic activity against Trypanosoma cruzi Tulahuen C4 intracellular amastigotes infected in rat L6 cells assessed as growth inhibition at 4.8 ug/ml after 96 hrs by CPRG/Nonidet reagent based photometric analysis relative to control. The class given is functional. The note with it: Tulahuen C4, L6, 96 h, read-out: GI.
Series [5] has as its system Plasmodium falciparum. Briefly: Antiparasitic activity against intraerythrocytic form of chloroquine/pyrimethamine-resistant Plasmodium falciparum K1 infected in human RBC assessed as growth inhibition at 0.8 ug/ml preincubated for 48 hrs followed by [3H]-hypoxanthine addition measured after 24 hrs by liquid scintillation counting analysis relative to control. The class given is functional. Particulars: read-out: GI.

Series [6] relates to Plasmodium falciparum. Briefly: Antiparasitic activity against intraerythrocytic form of chloroquine/pyrimethamine-resistant Plasmodium falciparum K1 infected in human RBC assessed as growth inhibition at 4.8 ug/ml preincubated for 48 hrs followed by [3H]-hypoxanthine addition measured after 24 hrs by liquid scintillation counting analysis relative to control. The class given is functional. Particulars: read-out: GI.

In series [7] the test system is Trypanosoma brucei rhodesiense. Briefly: Antiparasitic activity against Trypanosoma brucei rhodesiense STIB 900 trypomastigote bloodstream form assessed as growth inhibition at 0.8 ug/ml after 72 hrs by resazurin dye-based fluorometric analysis relative to control. Particulars: STIB 900, 72 h, read-out: GI. It counts as functional.
Series [8] deals with Trypanosoma brucei rhodesiense. The experiment in a line: Antiparasitic activity against Trypanosoma brucei rhodesiense STIB 900 trypomastigote bloodstream form assessed as growth inhibition at 4.8 ug/ml after 72 hrs by resazurin dye-based fluorometric analysis relative to control. The note with it: STIB 900, 72 h, read-out: GI. It counts as functional.
For series [9], the system named is Trypanosoma cruzi. Briefly: Antiparasitic activity against Trypanosoma cruzi Tulahuen C4 intracellular amastigotes infected in rat L6 cells after 96 hrs by CPRG/Nonidet reagent based photometric analysis. It counts as functional, cell-based. The note with it: Tulahuen C4, L6, 96 h.
The subject of the next series is L6. Briefly: Cytotoxicity against rat L6 cells assessed as cell viability after 72 hrs by Alamar blue assay. The class given is cell-based. Particulars: L6, 72 h.
The nature of series [10]: Selectivity index, ratio of IC50 for rat L6 cells to IC50 for Trypanosoma cruzi Tulahuen C4 intracellular amastigotes infected in rat L6 cells. The class given is toxicity, cell-based. The note with it: read-out: Ratio IC50.
Series [11] relates to Plasmodium falciparum. Briefly: Antiparasitic activity against intraerythrocytic form of chloroquine/pyrimethamine-resistant Plasmodium falciparum K1 infected in human RBC preincubated for 48 hrs followed by [3H]-hypoxanthine addition measured after 24 hrs by liquid scintillation counting analysis. The class given is functional.
Series [12] concerns Leishmania donovani. The experiment in a line: Antiparasitic activity against Leishmania donovani MHOM-ET-67/L82 axenic amastigotes after 72 hrs by Alamar blue assay. The note with it: MHOM-ET-67/L82, 72 h. It counts as functional.
A short description of series [13]: Selectivity index, ratio of IC50 for rat L6 cells to IC50 for Leishmania donovani MHOM-ET-67/L82 axenic amastigotes. The class given is toxicity. The note with it: read-out: Ratio IC50.

Each structure is given as a SMILES string. Active and inactive are the calls of the source. No cut-off for these calls is given here.

The term IC50 denotes the concentration that inhibits the measured activity by half.

Turning to `CC1CCc2ccccc2N1S(=O)(=O)c1ccc(C(F)(F)F)cc1` (stereo not drawn), the inhibition of growth at 0.8 µg/mL with Leishmania donovani [1] was 29%; in the series with Trypanosoma cruzi [3] it was 5.3%; in the series on Plasmodium falciparum [5], 26.4%; in series [7] it was 5.5%. The inhibition of growth at 4.8 µg/mL turned out to be 96% in the series with Leishmania donovani [2], 98.2% in the series with Trypanosoma cruzi [4], 98.8% in the series on Plasmodium falciparum [6] and 8.1% in series [8]. The figures for the IC50 with Trypanosoma cruzi [9] and with L6 were 5.89 µM and 12.2 µM, respectively. Moreover, the selectivity ratio in [10] was determined as 2.
Take `CC1Cc2ccccc2N1S(=O)(=O)c1ccc([N+](=O)[O-])cc1` (stereo not drawn): the inhibition of growth at 0.8 µg/mL worked out at 41.7% in the series on Leishmania donovani [1], 19.4% with Trypanosoma cruzi [3], 18% in the series with Plasmodium falciparum [5] and 6.9% in series [7]. For the same molecule, the inhibition of growth at 4.8 µg/mL stood at 79.5% with Leishmania donovani [2], 94.4% with Trypanosoma cruzi [4], 72.6% with Plasmodium falciparum [6] and 68.2% in series [8]. In addition, the IC50 was 2.8 µM with Trypanosoma cruzi [9] and 69.4 µM with L6. The outcome in the series with Plasmodium falciparum [11] was Active. The selectivity ratio in series [10] came to 24.8.
Turning to `CC1Cc2ccccc2N1S(=O)(=O)c1ccc(Br)cc1` (stereo not drawn), the inhibition of growth at 0.8 µg/mL in the series on Leishmania donovani [1] stood at 17.6%; in the series with Trypanosoma cruzi [3], 0%; in the series on Plasmodium falciparum [5], 9.1%; in series [7], 0%. For the same molecule, the inhibition of growth at 4.8 µg/mL in the series on Leishmania donovani [2] stood at 81.4%; in the series with Trypanosoma cruzi [4] it was 100%; with Plasmodium falciparum [6] it was 76%; in series [8] it was 0.9%. Further, the half-maximal inhibitory concentration (IC50) in the series with Trypanosoma cruzi [9] worked out at 5.76 µM; with L6 it was 13.2 µM. Moreover, the selectivity ratio in [10] amounted to 2.29.
Regarding `Cc1cc(C)c(C)c(S(=O)(=O)n2ccc3ccccc32)c1C`, the inhibition of growth at 0.8 µg/mL in the series on Leishmania donovani [1] was determined as 76.4%; in the series with Trypanosoma cruzi [3], 0.2%; in the series with Plasmodium falciparum [5], 3.2%; in series [7], 3.1%. The inhibition of growth at 4.8 µg/mL is 100% with Leishmania donovani [2], 24.7% in the series with Trypanosoma cruzi [4], 41.4% with Plasmodium falciparum [6] and 2.7% in [8]. In addition, the IC50 in the series with Leishmania donovani [12] amounted to 0.64 µM; in the series with L6, 8.97 µM. The selectivity ratio in [13] worked out at 13.4.
On to `CC1Cc2ccccc2N1S(=O)(=O)c1ccc(Cl)cc1` (stereo not drawn), for which the inhibition of growth at 0.8 µg/mL with Leishmania donovani [1] worked out at 9%; in the series with Trypanosoma cruzi [3], 0%; in the series on Plasmodium falciparum [5], 17.7%; in [7], 6.5%. The inhibition of growth at 4.8 µg/mL was 83.3% in the series with Leishmania donovani [2], 100% in the series on Trypanosoma cruzi [4], 87.9% in the series on Plasmodium falciparum [6] and 4% in [8]. Moreover, the figures for the IC50 with Trypanosoma cruzi [9] and in the series on L6 were 4.79 µM and 11.1 µM, respectively. Also, in series [10], the selectivity ratio is 2.31.
On to `Cc1cc(C)c(C)c(S(=O)(=O)N2CCCc3ccccc32)c1C`, for which the inhibition of growth at 0.8 µg/mL worked out at 94.2% with Leishmania donovani [1], 15.5% in the series on Trypanosoma cruzi [3], 3.1% with Plasmodium falciparum [5] and 2.7% in series [7]. Besides, the inhibition of growth at 4.8 µg/mL worked out at 100% in the series with Leishmania donovani [2], 60.3% with Trypanosoma cruzi [4], 56.5% in the series with Plasmodium falciparum [6] and 3.7% in series [8]. Also, the IC50 came to 0.36 µM in the series with Leishmania donovani [12] and 2.71 µM in the series on L6. Moreover, in [13], the selectivity ratio is 7.53.
Consider `CCCCCCCCCCCCCCCCOP(=O)([O-])OCC[N+](C)(C)C` [MILTEFOSINE], for which, in the series with Leishmania donovani [1], the inhibition of growth at 0.8 µg/mL came out at 60.1%. Further, the inhibition of growth at 4.8 µg/mL in the series with Leishmania donovani [2] amounted to 93.3%. In the series on Leishmania donovani [12], this molecule yielded an IC50 of 0.25 µM.
In the case of `O=[N+]([O-])c1cccc(S(=O)(=O)N2CCc3ccccc32)c1`, the inhibition of growth at 0.8 µg/mL with Leishmania donovani [1] came to 15.9%; with Trypanosoma cruzi [3] it was 36.4%; in the series on Plasmodium falciparum [5] it was 14.7%; in [7] it was 0%. Besides, the inhibition of growth at 4.8 µg/mL in the series on Leishmania donovani [2] is 95.4%; in the series with Trypanosoma cruzi [4] it was 100%; in the series with Plasmodium falciparum [6], 79.2%; in [8] it was 4.3%. The IC50 was 1.08 µM in the series on Trypanosoma cruzi [9] and 15.1 µM with L6. Moreover, the selectivity ratio in series [10] is 14.
As for `O=[N+]([O-])c1ccc(S(=O)(=O)N2CCc3ccccc32)cc1`, the inhibition of growth at 0.8 µg/mL is 37.6% with Leishmania donovani [1], 34.7% with Trypanosoma cruzi [3], 0% with Plasmodium falciparum [5] and 27.4% in series [7]. For the same molecule, the inhibition of growth at 4.8 µg/mL with Leishmania donovani [2] was found to be 100%; with Trypanosoma cruzi [4] it was 100%; in the series with Plasmodium falciparum [6], 69.7%; in [8], 98%. In addition, the IC50 turned out to be 1.15 µM in the series on Trypanosoma cruzi [9] and 9.1 µM in the series on L6. The result in the series on Plasmodium falciparum [11] was Active. In series [10], the selectivity ratio was 7.9.
Turning to `Cc1cc(C)c(C)c(S(=O)(=O)N2CCc3ccccc32)c1C`, the inhibition of growth at 0.8 µg/mL in the series with Leishmania donovani [1] was determined as 61.3%; in the series on Trypanosoma cruzi [3] it was 10.3%; in the series with Plasmodium falciparum [5] it was 3.3%; in [7], 5.5%. The inhibition of growth at 4.8 µg/mL was determined as 100% in the series on Leishmania donovani [2], 31.4% with Trypanosoma cruzi [4], 41.8% in the series on Plasmodium falciparum [6] and 5.7% in series [8]. Also, the IC50 in the series on Leishmania donovani [12] was 0.73 µM; in the series with L6, 12.6 µM. The selectivity ratio in series [13] stood at 17.2.
For `Cc1cc(C)c(C)c(S(=O)(=O)N2CCc3ccccc3C2)c1C`, the inhibition of growth at 0.8 µg/mL amounted to 63.3% in the series with Leishmania donovani [1], 1.8% in the series with Trypanosoma cruzi [3], 4.5% in the series with Plasmodium falciparum [5] and 2% in series [7]. Also, the inhibition of growth at 4.8 µg/mL is 100% with Leishmania donovani [2], 23.1% with Trypanosoma cruzi [4], 18.8% in the series with Plasmodium falciparum [6] and 1.7% in series [8]. For the same molecule, the IC50 with Leishmania donovani [12] is 0.76 µM; in the series with L6 it was 3.6 µM. Also, the selectivity ratio in series [13] stood at 4.8.
As to `CC1CCc2ccccc2N1S(=O)(=O)c1cccc(C(F)(F)F)c1` (stereo not drawn), the inhibition of growth at 0.8 µg/mL is 25.8% in the series with Leishmania donovani [1], 5.4% in the series on Trypanosoma cruzi [3], 5.8% with Plasmodium falciparum [5] and 1.8% in series [7]. For the same molecule, the inhibition of growth at 4.8 µg/mL in the series with Leishmania donovani [2] stood at 82.3%; with Trypanosoma cruzi [4], 95.6%; in the series on Plasmodium falciparum [6], 81.3%; in series [8], 0%. For the same molecule, the figures for the IC50 with Trypanosoma cruzi [9] and with L6 were 6.6 µM and 13.1 µM, respectively. Further, the selectivity ratio in [10] amounted to 1.98.
Consider `Cc1cc(C)c(C)c(S(=O)(=O)N2c3ccccc3CCC2C)c1C` (stereo not drawn), for which the inhibition of growth at 0.8 µg/mL in the series on Leishmania donovani [1] amounted to 73.1%; in the series with Trypanosoma cruzi [3], 9.7%; in the series on Plasmodium falciparum [5] it was 6.7%; in series [7] it was 0%. The inhibition of growth at 4.8 µg/mL was determined as 100% in the series with Leishmania donovani [2], 69.3% in the series with Trypanosoma cruzi [4], 78% with Plasmodium falciparum [6] and 0% in series [8]. In addition, the IC50 was determined as 0.62 µM in the series with Leishmania donovani [12] and 12.4 µM in the series on L6. The selectivity ratio in [13] was 20.
Take `Cc1cc(C)c(C)c(S(=O)(=O)N2c3ccccc3CC2C)c1C` (stereo not drawn): the inhibition of growth at 0.8 µg/mL came to 77.2% in the series on Leishmania donovani [1], 0% with Trypanosoma cruzi [3], 5.5% in the series on Plasmodium falciparum [5] and 0% in [7]. Further, the inhibition of growth at 4.8 µg/mL in the series on Leishmania donovani [2] came out at 100%; with Trypanosoma cruzi [4] it was 75.2%; with Plasmodium falciparum [6], 76.7%; in series [8], 0%. Moreover, the IC50 in the series with Leishmania donovani [12] came to 0.23 µM; in the series on L6, 6.62 µM. Besides, the selectivity ratio in series [13] was 28.8.
